From ChEMBL document CHEMBL3425434 (J Med Chem, 2015)
The source made the active and inactive calls. No cut-off for these calls is given here.

Tests used:
[1] = Inhibition of ROCK-catalysed MLC Thr18/Ser19 phosphorylation in rat A7r5 cells after 90 mins by ELISA; assay type: cell-based; settings: A7R5, 1.5 h
[2] = molecular target: T1, Rho-associated protein kinase 2 (Homo sapiens, UniProt O75116); experiment: Inhibition of human N-terminal GST-tagged ROCK2 expressed in baculovirus-infected insect cells using long S6 kinase peptide as substrate by radiometric assay in presence of [32P]ATP and 200 uM ATP
[3] = molecular target: T1, Rho-associated protein kinase 2; experiment: Inhibition of human N-terminal GST-tagged ROCK2 expressed in baculovirus-infected insect cells using long S6 kinase peptide as substrate by radiometric assay in presence of [32P]ATP
[4] = Half life in human plasma by LC-MS/MS analysis; assay type: ADME, cell-free
[5] = molecular target: Rho-associated protein kinase 1 (Homo sapiens, UniProt Q13464); experiment: Inhibition of human N-terminal GST-tagged ROCK1 expressed in insect cells using long S6 kinase peptide as substrate by radiometric assay in presence of [32P]ATP
[6] = Apparent permeability across human Caco2 cells; assay type: ADME, cell-based; settings: Caco-2
HDF-1 = experiment: Induction of cell migration in human HDF-1 cells at 1 uM after 8 hrs by wound healing assay; assay type: functional, cell-based
[7] = Lipophilicity, log D of the compound at pH 7.4; assay type: physicochemical; settings: buffer
[8] = Half life in human plasma by LC-MS/MS analysis in presence of 5 uM cholinesterase inhibitor tacrine; assay type: ADME, cell-free; settings: with tacrine (cholinesterase inhibitor)
[9] = Stability in human plasma assessed as compound remaining after 2 hrs by LC-MS/MS analysis; assay type: ADME, cell-free; settings: read-out: Stability
[10] = Stability in human plasma assessed as compound remaining after 60 mins by LC-MS/MS analysis; assay type: ADME, cell-free; settings: read-out: Stability
[11] = Stability in human plasma assessed as compound remaining after 60 mins by LC-MS/MS analysis in presence of 5 uM cholinesterase inhibitor tacrine; assay type: ADME, cell-free; settings: with tacrine (cholinesterase inhibitor), read-out: Stability

T1 sequence (O75116 whole entry): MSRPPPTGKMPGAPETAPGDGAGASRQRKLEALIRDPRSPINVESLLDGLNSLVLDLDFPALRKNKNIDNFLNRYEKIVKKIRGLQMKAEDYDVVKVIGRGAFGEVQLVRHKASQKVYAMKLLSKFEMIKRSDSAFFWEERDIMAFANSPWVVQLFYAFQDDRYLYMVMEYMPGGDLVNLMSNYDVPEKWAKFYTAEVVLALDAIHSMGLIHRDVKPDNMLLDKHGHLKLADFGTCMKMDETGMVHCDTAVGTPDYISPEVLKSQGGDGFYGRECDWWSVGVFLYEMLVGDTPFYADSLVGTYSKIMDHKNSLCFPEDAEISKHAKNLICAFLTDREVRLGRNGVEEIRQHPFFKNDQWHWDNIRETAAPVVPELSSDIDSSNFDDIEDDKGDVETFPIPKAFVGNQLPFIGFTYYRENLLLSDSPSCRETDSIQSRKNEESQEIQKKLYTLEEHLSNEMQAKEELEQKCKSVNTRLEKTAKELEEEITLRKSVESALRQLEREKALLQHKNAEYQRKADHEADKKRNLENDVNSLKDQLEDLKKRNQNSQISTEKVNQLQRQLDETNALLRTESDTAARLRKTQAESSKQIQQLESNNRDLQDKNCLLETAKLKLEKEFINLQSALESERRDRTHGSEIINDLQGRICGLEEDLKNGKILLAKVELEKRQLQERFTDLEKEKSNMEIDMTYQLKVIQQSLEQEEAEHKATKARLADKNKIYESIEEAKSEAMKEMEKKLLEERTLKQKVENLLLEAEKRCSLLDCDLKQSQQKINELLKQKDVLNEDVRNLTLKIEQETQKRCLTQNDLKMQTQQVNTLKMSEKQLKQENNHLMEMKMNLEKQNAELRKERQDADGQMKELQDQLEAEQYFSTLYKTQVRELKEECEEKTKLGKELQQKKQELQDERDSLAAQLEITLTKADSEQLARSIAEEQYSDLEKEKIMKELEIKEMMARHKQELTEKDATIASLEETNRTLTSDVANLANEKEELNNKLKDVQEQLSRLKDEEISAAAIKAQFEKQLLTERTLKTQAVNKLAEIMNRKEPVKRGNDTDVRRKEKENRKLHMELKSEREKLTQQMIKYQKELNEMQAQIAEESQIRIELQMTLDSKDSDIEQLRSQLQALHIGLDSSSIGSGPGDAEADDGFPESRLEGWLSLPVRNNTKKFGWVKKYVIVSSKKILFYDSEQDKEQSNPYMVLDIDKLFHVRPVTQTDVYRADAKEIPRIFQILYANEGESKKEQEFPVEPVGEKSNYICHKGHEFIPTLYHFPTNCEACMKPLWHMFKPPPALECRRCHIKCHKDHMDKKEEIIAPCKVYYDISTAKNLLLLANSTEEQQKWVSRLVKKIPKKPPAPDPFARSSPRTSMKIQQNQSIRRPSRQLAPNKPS
Chain of Rho-associated protein kinase 1 (Q13464 whole entry): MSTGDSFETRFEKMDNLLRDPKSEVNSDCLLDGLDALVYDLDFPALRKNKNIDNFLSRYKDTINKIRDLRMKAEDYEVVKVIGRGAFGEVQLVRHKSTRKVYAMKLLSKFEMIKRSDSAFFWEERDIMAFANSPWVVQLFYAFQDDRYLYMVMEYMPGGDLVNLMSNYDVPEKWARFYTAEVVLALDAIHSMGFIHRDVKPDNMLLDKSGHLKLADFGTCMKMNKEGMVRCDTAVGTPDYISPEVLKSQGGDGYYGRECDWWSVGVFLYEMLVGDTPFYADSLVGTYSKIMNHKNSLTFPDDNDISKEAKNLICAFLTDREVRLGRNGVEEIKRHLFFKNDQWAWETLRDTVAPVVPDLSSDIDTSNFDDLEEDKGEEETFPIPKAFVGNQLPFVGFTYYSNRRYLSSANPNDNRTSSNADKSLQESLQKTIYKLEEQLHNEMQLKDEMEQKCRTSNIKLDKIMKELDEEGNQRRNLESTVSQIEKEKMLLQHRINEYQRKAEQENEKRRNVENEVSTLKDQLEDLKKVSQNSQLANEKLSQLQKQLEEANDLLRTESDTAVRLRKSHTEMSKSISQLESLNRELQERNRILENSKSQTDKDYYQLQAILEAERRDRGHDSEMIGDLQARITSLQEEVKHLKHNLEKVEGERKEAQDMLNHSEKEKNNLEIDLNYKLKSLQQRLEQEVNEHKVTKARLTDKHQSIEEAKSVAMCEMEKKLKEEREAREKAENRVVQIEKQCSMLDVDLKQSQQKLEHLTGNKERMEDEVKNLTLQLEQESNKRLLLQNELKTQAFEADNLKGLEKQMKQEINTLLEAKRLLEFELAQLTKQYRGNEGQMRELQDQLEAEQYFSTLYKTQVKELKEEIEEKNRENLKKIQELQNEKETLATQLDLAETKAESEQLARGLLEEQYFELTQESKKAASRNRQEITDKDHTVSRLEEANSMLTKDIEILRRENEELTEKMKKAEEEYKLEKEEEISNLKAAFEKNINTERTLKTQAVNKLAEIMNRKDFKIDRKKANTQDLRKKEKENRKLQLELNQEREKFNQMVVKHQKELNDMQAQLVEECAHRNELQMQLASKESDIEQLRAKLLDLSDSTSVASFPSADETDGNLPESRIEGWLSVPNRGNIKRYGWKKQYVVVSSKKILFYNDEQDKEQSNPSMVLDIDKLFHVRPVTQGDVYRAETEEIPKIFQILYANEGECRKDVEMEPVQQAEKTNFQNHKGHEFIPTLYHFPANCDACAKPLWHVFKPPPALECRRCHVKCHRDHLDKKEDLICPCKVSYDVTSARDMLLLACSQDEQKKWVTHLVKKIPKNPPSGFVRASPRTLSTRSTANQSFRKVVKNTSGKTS

SMILES	EC50 [1] [µM]	IC50 [2] [µM]	IC50 [3] [µM]	half-life [4] [min]	further results
C[C@H]1CNCCCN1S(=O)(=O)c1cccc2cncc(F)c12	0.21	0.197	0.0038	–	–
NCc1ccc(C(=O)Nc2ccncc2F)cc1-c1cccc(C(=O)Nc2ccc(CC(=O)OC3CCC3)cc2)c1	0.024	0.0014	0.0013	6	–
COC(=O)Cc1cccc(NC(=O)c2cccc(-c3cc(C(=O)Nc4ccncc4F)ccc3CN)c2)c1	0.22	0.144	0.0011	< 5	IC50 [5]: < 0.001 µM
NCc1ccc(C(=O)Nc2ccncc2F)cc1-c1cccc(C(=O)Nc2ccc(C(=O)O)cc2)c1	6.6	–	0.0033	> 120	Papp [6]: 0.08 ×10⁻⁶ cm/s; Activity (HDF-1): inactive; logD [7]: 0.56
COC(=O)Cc1ccc(NC(=O)c2cccc(-c3cc(C(=O)Nc4ccncc4F)ccc3CN)c2)cc1	0.031	0.011	< 0.001	< 5	half-life [8]: 53 min; IC50 [5]: < 0.001 µM
NCc1ccc(C(=O)Nc2ccncc2F)cc1-c1cccc(C(=O)OCC2CCCO2)c1 (stereo not given)	0.094	0.049	–	< 5	–
CCCOC(=O)c1ccc(F)c(NC(=O)c2cccc(-c3cc(C(=O)Nc4ccncc4F)ccc3CN)c2)c1	0.075	–	0.0021	< 5	–
CCCOC(=O)c1cccc(C(=O)Nc2cccc(-c3cc(C(=O)Nc4ccncc4F)ccc3CN)c2)c1	0.015	–	0.0018	< 5	–
CCC(C)OC(=O)c1cccc(NC(=O)c2cccc(-c3cc(C(=O)Nc4ccncc4F)ccc3CN)c2)c1 (stereo not given)	0.077	–	0.0026	16	–
CN1CCC(OC(=O)Cc2ccc(NC(=O)c3cccc(-c4cc(C(=O)Nc5ccncc5F)ccc4CN)c3)cc2)CC1	0.33	0.0046	< 0.001	< 5	–
COC(=O)c1cccc(NC(=O)c2cccc(-c3cc(C(=O)Nc4ccncc4F)ccc3CN)c2)c1	0.079	0.125	0.0011	< 5	half-life [8]: 53 min; IC50 [5]: < 0.001 µM
COC(=O)c1cccc(NC(=O)c2cccc(-c3cc(C(=O)Nc4ccncc4F)ccc3CN)c2)c1F	0.011	0.0088	0.0012	< 5	–
NCc1ccc(C(=O)Nc2ccncc2F)cc1-c1cccc(NC(=O)c2cc(C(=O)O)ccc2F)c1	8.9	–	< 0.001	> 120	–
NCc1ccc(C(=O)Nc2ccncc2F)cc1-c1cccc(C(=O)Nc2cc(C(=O)O)ccc2F)c1	3.9	–	0.002	> 120	–
CC(C)OC(=O)Cc1ccc(NC(=O)c2cccc(-c3cc(C(=O)Nc4ccncc4F)ccc3CN)c2)cc1	0.037	< 0.001	< 0.001	94	–
NCc1ccc(C(=O)Nc2ccncc2F)cc1-c1cccc(C(=O)Nc2cccc(CC(=O)O)c2)c1	1.3	–	0.0015	> 120	–
COC(=O)c1ccc(C(=O)Nc2cccc(-c3cc(C(=O)Nc4ccncc4F)ccc3CN)c2)cc1	0.0052	0.0031	< 0.001	> 120	–
NCc1ccc(C(=O)Nc2ccncc2F)cc1-c1cccc(NC(=O)c2cccc(C(=O)O)c2)c1	2	–	< 0.001	> 120	–
CC[C@H](C)OC(=O)c1ccc(F)c(NC(=O)c2cccc(-c3cc(C(=O)Nc4ccncc4F)ccc3CN)c2)c1	0.05	0.072	0.0055	39	–

SMILES	EC50 [1] [µM]	IC50 [2] [µM]	IC50 [3] [µM]	half-life [4] [min]	further results
CC(C)OC(=O)c1cccc(NC(=O)c2cccc(-c3cc(C(=O)Nc4ccncc4F)ccc3CN)c2)c1	0.15	–	0.007	34	–
CC[C@@H](C)OC(=O)c1ccc(F)c(NC(=O)c2cccc(-c3cc(C(=O)Nc4ccncc4F)ccc3CN)c2)c1	0.079	–	0.0033	46	–
NCc1ccc(C(=O)Nc2ccncc2F)cc1-c1cccc(C(=O)Nc2ccc(CC(=O)O)cc2)c1	3.6	–	0.0018	> 120	–
NCc1ccc(C(=O)Nc2ccncc2F)cc1-c1cccc(C(=O)Nc2cccc(C(=O)OC3CCCC3)c2F)c1	0.043	0.041	0.0014	9	–
NCc1ccc(C(=O)Nc2ccncc2F)cc1-c1cccc(C(=O)Nc2ccccc2)c1	0.022	0.031	< 0.001	> 120	remaining at 2 h [9]: > 90%; Papp [6]: 2.3 ×10⁻⁶ cm/s
NCc1ccc(C(=O)Nc2ccncc2F)cc1-c1cccc(NC(=O)c2ccc(C(=O)O)cc2)c1	3.6	–	0.001	–	–
CCCCOC(=O)c1cccc(NC(=O)c2cccc(-c3cc(C(=O)Nc4ccncc4F)ccc3CN)c2)c1	0.18	–	0.027	< 5	–
C[C@@H](N)[C@H]1CC[C@H](C(=O)Nc2ccncc2)CC1 [Y-27632]	0.63	–	–	> 120	–
NCc1ccc(C(=O)Nc2ccncc2F)cc1-c1cccc(C(=O)Nc2cccc(C(=O)O)c2)c1	5.9	–	0.0066	> 120	–
CC[C@@H](C)OC(=O)Cc1ccc(NC(=O)c2cccc(-c3cc(C(=O)Nc4ccncc4F)ccc3CN)c2)cc1	0.031	< 0.001	< 0.001	> 120	–
NCc1ccc(C(=O)Nc2ccncc2F)cc1-c1cccc(C(=O)Nc2ccc(CC(=O)OC3CCOCC3)cc2)c1	0.079	< 0.001	< 0.001	7	remaining at 1 h [10]: 0%; remaining at 1 h [11]: 82%
NCc1ccc(C(=O)Nc2ccncc2F)cc1-c1cccc(C(=O)Nc2cccc(C(=O)O)c2F)c1	> 10	–	0.0035	> 120	–
CC[C@H](C)OC(=O)Cc1ccc(NC(=O)c2cccc(-c3cc(C(=O)Nc4ccncc4F)ccc3CN)c2)cc1	0.023	< 0.001	< 0.001	17	remaining at 1 h [10]: 42%; remaining at 1 h [11]: 101%
COCCOC(=O)c1ccc(F)c(C(=O)Nc2cccc(-c3cc(C(=O)Nc4ccncc4F)ccc3CN)c2)c1	0.026	0.0022	< 0.001	< 5	remaining at 1 h [10]: 0%; remaining at 1 h [11]: 88%
CCCOC(=O)c1ccc(NC(=O)c2cccc(-c3cc(C(=O)Nc4ccncc4F)ccc3CN)c2)cc1	0.0083	–	< 0.001	> 120	–
NCc1ccc(C(=O)Nc2ccncc2F)cc1-c1cccc(C(=O)Nc2ccc(CC(=O)OC3CCCOC3)cc2)c1 (stereo not given)	0.036	< 0.001	< 0.001	6	–
COC(=O)c1ccc(F)c(C(=O)Nc2cccc(-c3cc(C(=O)Nc4ccncc4F)ccc3CN)c2)c1	0.0068	0.0014	< 0.001	53	remaining at 1 h [10]: 23%; remaining at 1 h [11]: 103%
COC(=O)c1cccc(C(=O)Nc2cccc(-c3cc(C(=O)Nc4ccncc4F)ccc3CN)c2)c1	0.017	0.0021	< 0.001	64	–
